Results as given in paper PMC10979747 (Journal of the American Chemical Society, 2024).
Like-named read-outs stand apart in the source and are kept apart here. Numbered stars: 1 amine (or outer) side, 2 acyl side, 3 side chain; on linkers, the order of the positions; unused ones are H or OH. Bridge positions count the residues as written; N and C are the ends. Square brackets hold non-standard residues; d marks the D form. Peptide text beside a SMILES is read from it. X1 = C=C(N[*:2])c1nc(-c2nc(-c3nc(C(=O)OC)cs3)ccc2C(=O)[*:1])cs1; NMePhe(4-NO2) = CN[C@@H](Cc1ccc([N+](=O)[O-])cc1)C(=O)O; Tic(7-OH) = O=C(O)[C@@H]1Cc2ccc(O)cc2CN1; X2 = O=C(c1csc([C@H](CO)N[*:1])n1)[*:2]; NMeA = CN[C@@H](C)C(=O)O; Dhb = C/C=C(\N)C(=O)O; Dha = C=C(N)C(=O)O; Sar = CNCC(=O)O

Assays:
[1] = human serum (0.33 volumes; Cosmo Bio) added to thiopeptide and internal standard in TBS; conditions: 37 °C, up to various timepoints, time axis of Fig. 5c runs to 30 h
[2] = tested on: agarose-immobilized TPCK-treated trypsin (Thermo Fisher); test: agarose-immobilized TPCK-treated trypsin in digestion buffer [50 mM tris, 100 mM NaCl, 10 mM EDTA, pH 7.9]; conditions: 22 °C, up to 6 h
[3] = in vitro; conditions: buffer or solvent, pH 7.5
Protocol: (§5) Stability to glutathione. To a freshly prepared solution of glutathione (5 mM) in stability
(§6) buffer [50 mM HEPES (pH 7.5), 100 mM NaCl] was added a solution of analyte (1.5 mM
(§7) thiopeptide in DMSO; f. c.: 10 µM). The contents were mixed and transferred to a 37 °C
(§8) thermostat. At various time points (0.5, 1, 2, 4, 6, and 10 h) aliquots were withdrawn and
(§9) quenched with 2 volumes of methanol containing 30 mM iodoacetamide. The samples were
(§10) analyzed by LC/MS (0.3 µL; section 2.6) using method 3. Areas under the peak curve for all
(§11) thiopeptide-derived products in the sample (TIC chromatograms) were used to calculate
(§12) fractions of intact analyte. Thiopeptide half-life values were obtained from non-linear
(§13) regression (scipy)15 of experimentally measured values to the pseudo-first order
(§14) approximation for the reaction kinetics which can be used since [glutathione] >> [analyte].

[4] = biological target: T1, TNIK (Homo sapiens, UniProt Q9UKE5); test: ADP-Glo kinase inhibition assay; format: biochemical; parameters: Biotinylated TNIK (kinase domain, amino acids 1-314;); biotin (biotinylated protein); purchased Carna Biosciences (Kobe, Japan); conditions: 0.5 nM TNIK, 25 µM ATP, 15 µM MSTtide, 4-parameter logistic fit; for IC50: read-out: ADP-Glo IC50 against TNIK
Protocol: (§1) 2.9. Kinase inhibition assays with ADP-Glo
The ADP-Glo assay system was purchased from Promega. The kinase reaction buffer contained 50 mM Tris (pH 7.5), 10 mM MgCl2 and 0.01% (v/v) triton X-100. TNIK (1.25 nM) was incubated with various concentrations of analyte inhibitors in kinase reaction buffer at 25 °C for 10 min. After, the reactions were initiated by the addition of ATP and substrate […]
peptide (MSTtide, sequence: NH2-NKGYNTLRRKK-CONH2;ref 14 synthesized using the standard Fmoc SPPS techniques). The final mixtures containing 0.5 nM TNIK, 25 µM ATP, 15 µM MSTtide and variable concentration of the inhibitors were incubated at 25 °C for 30 min. The reactions were stopped by the addition of ADP -Glo reagent (1 volume), and the luminescent signal was developed following the manufacturer’s instructions. Luminesce was recorded on a Tecan M1000 PRO microplate reader (Tecan Group) with 1 s acquisition time and no signal attenuation. TNIK kinase activity was normalized to a no inhibitor control, and […]
values to the standard 4-parameter logistic curve model. […]
Target sequence in this assay (Q9UKE5 1-314): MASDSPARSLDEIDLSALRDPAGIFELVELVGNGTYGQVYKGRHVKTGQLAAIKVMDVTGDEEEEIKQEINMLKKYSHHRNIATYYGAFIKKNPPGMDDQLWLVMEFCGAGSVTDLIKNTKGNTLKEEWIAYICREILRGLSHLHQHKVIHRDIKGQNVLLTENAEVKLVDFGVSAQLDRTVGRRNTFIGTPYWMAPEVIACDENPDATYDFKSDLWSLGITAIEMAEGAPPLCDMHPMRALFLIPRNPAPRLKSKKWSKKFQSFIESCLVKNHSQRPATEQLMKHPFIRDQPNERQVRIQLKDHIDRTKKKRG

[5] = tested on: T2, trypsin; test: Stability to agarose-immobilized trypsin (LC/MS); format: in vitro ADME; conditions: isolated enzyme trypsin, pH 7.9
T2 construct: purchased Thermo Fisher
Protocol: 2.10. Thiopeptide metabolic stability experiments
Stability to trypsin. To a solution of the analyte thiopeptide (15 µM) and the internal standard peptide (5 µM NH2-PEG5-wstndwdtnd-PEG5-CONH2;ref 16 lower case encoding is for D-amino acids; synthesized using the standard Fmoc SPPS techniques) in digestion buffer [50 mM tris, 100 mM NaCl, 10 mM EDTA, pH 7.9] was added agarose -immobilized TPCK-treated trypsin (Thermo Fisher; 1 µL of resin slurry; 100 µL final reaction volume ) that was previously washed with digestion buffer thrice. The mixture was agitated at 22 °C, and at various timepoints (0.5, 1, 2, 4, and 6 h) aliquots were withdrawn and quenched with 14 volumes of water/acetonitrile mixture [30: 70 (v/v) water: acetonitr ile with 0.1% (v/v) TFA]. […]

[6] = biological target: T1, TNIK; test: Surface plasmon resonance, binding of thiopeptides to immobilized biotinylated TNIK (single-cycle, then multicycle kinetics); parameters: Biotinylated TNIK (kinase domain, amino acids 1-314;); biotin (biotinylated protein); purchased Carna Biosciences (Kobe, Japan)
Protocol: 2.8. Surface plasmon resonance
In the initial experiment, binding affinities between the thiopeptides and TNIK were measured with a Biacore T200 instrument (GE Healthcare) at 25 °C. The assay buffer contained 50 mM Tris (pH 7.5), 150 mM NaCl, 10 mM MgCl2, 0.01% (v/v) tween-20 and 0.1% (v/v) DMSO. For wTP3, the assay buffer additionally contained ATP (f.c.: 1 mM).
Biotinylated TNIK was immobilized on a Biacore CAP chip (GE Healthcare) to a surface density of 950-1200 response units following the standard immobilization protocols provided by the manufacturer. The interaction sensorgrams were measured as single-cycle kinetics performed with five concentrations of the ligand sequentially flown over the chip at a flow rate of 15 μL/min allowing for 20 or 30 s association and 70 or 60 s for dissociation between the steps. The final dissociation step was allowed to proceed for 180 s. […]
was repeated in triplicate on a Biacore 8K instrument (GE Healthcare) using a multi cycle kinetics format. The experimental details were as above, except ATP was not added to the buffer for wTP3. Kinetic parameters and affinities of the interaction were determined assuming the standard 1:1 binding model using the Biacore software (GE Healthcare).
Reported KD values were calculated from the average measured association and dissociation rates (Table S5).
Target sequence in this assay (Q9UKE5 1-314): as above

[7] = biological target: MINK (Homo sapiens, UniProt Q8N4C8); test: Kinase selectivity profiling (STE-1 kit, ADP-Glo readout): MINK; format: biochemical; conditions: 1 μM thiopeptide
Sequence of MINK (Q8N4C8 whole entry): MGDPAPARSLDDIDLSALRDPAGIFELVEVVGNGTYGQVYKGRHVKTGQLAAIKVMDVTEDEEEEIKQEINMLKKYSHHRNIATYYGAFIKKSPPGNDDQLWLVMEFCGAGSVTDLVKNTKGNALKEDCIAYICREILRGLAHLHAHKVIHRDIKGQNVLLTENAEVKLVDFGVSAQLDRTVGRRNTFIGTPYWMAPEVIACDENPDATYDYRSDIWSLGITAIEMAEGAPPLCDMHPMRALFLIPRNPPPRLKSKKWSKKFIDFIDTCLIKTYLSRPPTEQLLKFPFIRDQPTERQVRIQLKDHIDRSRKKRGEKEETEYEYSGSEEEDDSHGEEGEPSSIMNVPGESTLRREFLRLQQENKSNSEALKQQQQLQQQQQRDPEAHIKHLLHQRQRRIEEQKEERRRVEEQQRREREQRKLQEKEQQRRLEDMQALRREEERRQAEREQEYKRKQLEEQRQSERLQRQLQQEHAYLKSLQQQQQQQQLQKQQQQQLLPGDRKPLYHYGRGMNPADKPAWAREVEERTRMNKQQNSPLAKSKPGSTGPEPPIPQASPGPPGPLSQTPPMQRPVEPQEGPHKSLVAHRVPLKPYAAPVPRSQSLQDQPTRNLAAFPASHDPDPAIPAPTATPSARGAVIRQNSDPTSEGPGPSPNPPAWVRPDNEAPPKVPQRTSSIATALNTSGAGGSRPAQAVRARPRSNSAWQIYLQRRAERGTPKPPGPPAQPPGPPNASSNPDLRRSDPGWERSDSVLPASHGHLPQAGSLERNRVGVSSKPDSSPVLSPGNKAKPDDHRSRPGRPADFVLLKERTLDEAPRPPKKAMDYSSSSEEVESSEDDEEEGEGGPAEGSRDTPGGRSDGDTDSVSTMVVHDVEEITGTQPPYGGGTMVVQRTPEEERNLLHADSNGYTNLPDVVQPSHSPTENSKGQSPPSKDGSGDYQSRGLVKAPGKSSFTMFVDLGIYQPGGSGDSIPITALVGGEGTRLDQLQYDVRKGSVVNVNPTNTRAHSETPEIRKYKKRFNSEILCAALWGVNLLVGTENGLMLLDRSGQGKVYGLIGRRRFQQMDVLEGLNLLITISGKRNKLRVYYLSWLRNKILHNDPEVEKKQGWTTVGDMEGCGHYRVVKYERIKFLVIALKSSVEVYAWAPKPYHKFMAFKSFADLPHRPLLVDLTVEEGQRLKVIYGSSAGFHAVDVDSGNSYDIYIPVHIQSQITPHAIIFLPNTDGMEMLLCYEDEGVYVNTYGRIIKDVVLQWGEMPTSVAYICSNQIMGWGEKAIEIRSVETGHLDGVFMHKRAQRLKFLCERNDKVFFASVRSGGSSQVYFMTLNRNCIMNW
Protocol: as §1
(§2) The ADP-Glo assay system was purchased from Promega. The kinase reaction buffer contained 50 mM Tris (pH 7.5), 10 mM MgCl2 and 0.01% (v/v) triton X-100. […]
(§3) The reactions were stopped by the addition of ADP -Glo reagent (1 volume), and the luminescent signal was developed following the manufacturer’s instructions. […]
(§4) Kinase selectivity profiling. A STE-1 kinase selectivity profiling kit from Promega was utilized to assay the compounds. The experiment was conducted following the manufacturer’s instructions, and the signal was developed using the ADP-Glo assay system as described above. All measurements were performed in triplicate. After background correction, the kinase activities were normalized to a no inhibitor control , and percent remaining activity values were calculated accordingly. […]

[8] = Stability to glutathione (LC/MS); conditions: 5 mM glutathione in HEPES buffer, pH 7.5
Protocol: as §5, §6, §7, §8, §9, §10, §11, §12, §13, §14

[9] = tested on: HCT116 colon carcinoma cells; test: Cell viability assay (Cell Counting Kit-8); conditions: for cytotoxicity (cell viability) after 24 h incubation: 10 μM, thiopeptide acetate salts
Protocol: HCT116 cells were cultured in McCoy's 5A (Modified) Medium supplemented with 1% (v/v)
penicillin-streptomycin and 10% (v/v) fetal bovine serum (all from Thermo Fisher) in a
All assays were conducted using thiopeptide acetate salts prepared as follows. Strong
anion resin (AG® 1–X8 acetate form, analytical grade, quaternary ammonium 10~50 mg)
was first washed three times with 1.6 N acetic acid and three times with 0.16 N acetic acid.
Then, a thiopeptide solution ( 0.5~3 mg, dissolved in water/ acetonitrile [1:1, v/v; ~1 ml]) was
added to the resin. After 2 h on a rotary shaker, the peptide-resin suspension was ﬁltered
and the liquid phase was recovered. The resin was washed twice with water/acetonitrile (1:1,
v/v; 0.5 ml/wash), and the solutions were combined.
Cell viability assays. HCT116 cells were grown to 40–50% confluency in 96-well plates
that the final DMSO concentration is 1% (v/v) for every sample. In the first experiment (Fig.
S44a), the cells were grown for 24 h, and the incubation time was further extended to 48 h
In both cases, the cell viability was
directly assayed with Cell Counting Kit-8 (Dojindo) following the manufacturer’s instructions
allowing 4 h to develop the signal. Absorbance at 450 nm was measured on a Tecan M1000
PRO microplate reader (Tecan Group), and live cell counts were normalized to the DMSO
control. All experiments were performed in triplicate, and in most cases, replicated at least
once to analogous outcomes.

[10] = Serum stability assay (LC/MS against internal standard); conditions: human, human serum diluted in TBS, pH 7.6
Protocol: The ratio of areas under the peak for the intact analyte over the internal standard (EIC
chromatograms generated with m/z ± 3 cutoff values) were used to calculate the extent of
analyte degradation. Thiopeptide half-life values were obtained from non-linear regression
(scipy)15 of experimentally measured values to the standard first order kinetic decomposition
Serum stability assay. To a solution of analyte thiopeptide (13.3 µM) and the internal
standard peptide in TBS [5 µM; buffer: 50 mM Tris (pH 7.6), 150 mM NaCl] human serum
(0.33 volumes; Cosmo Bio) was added on ice. The solutions were mixed well and transferred to a 37 °C thermostat. At various timepoints, aliquots were withdrawn and quenched with 2.3 volumes of methanol containing 30 mM iodoacetamide. The mixtures were incubated on
ice for 15 min and then at 25 °C for 30 min. The samples were then centrifuged (15300 g for
5 min), and the supernatant (0.5 µL) was analyzed by LC/MS (section 2.5) using method 6
1 – 10 min 1 – 81% B, linear ramp
Data analysis was conducted as for the trypsin digestion assays.

[11] = biological target: T1, TNIK; test: Kinase selectivity profiling (STE-1 kit, ADP-Glo readout): TNIK; format: biochemical; conditions: 10 μM thiopeptide
Protocol: as §1, §2, §3, §4
Target sequence in this assay (Q9UKE5 whole entry, the tested form may be a part): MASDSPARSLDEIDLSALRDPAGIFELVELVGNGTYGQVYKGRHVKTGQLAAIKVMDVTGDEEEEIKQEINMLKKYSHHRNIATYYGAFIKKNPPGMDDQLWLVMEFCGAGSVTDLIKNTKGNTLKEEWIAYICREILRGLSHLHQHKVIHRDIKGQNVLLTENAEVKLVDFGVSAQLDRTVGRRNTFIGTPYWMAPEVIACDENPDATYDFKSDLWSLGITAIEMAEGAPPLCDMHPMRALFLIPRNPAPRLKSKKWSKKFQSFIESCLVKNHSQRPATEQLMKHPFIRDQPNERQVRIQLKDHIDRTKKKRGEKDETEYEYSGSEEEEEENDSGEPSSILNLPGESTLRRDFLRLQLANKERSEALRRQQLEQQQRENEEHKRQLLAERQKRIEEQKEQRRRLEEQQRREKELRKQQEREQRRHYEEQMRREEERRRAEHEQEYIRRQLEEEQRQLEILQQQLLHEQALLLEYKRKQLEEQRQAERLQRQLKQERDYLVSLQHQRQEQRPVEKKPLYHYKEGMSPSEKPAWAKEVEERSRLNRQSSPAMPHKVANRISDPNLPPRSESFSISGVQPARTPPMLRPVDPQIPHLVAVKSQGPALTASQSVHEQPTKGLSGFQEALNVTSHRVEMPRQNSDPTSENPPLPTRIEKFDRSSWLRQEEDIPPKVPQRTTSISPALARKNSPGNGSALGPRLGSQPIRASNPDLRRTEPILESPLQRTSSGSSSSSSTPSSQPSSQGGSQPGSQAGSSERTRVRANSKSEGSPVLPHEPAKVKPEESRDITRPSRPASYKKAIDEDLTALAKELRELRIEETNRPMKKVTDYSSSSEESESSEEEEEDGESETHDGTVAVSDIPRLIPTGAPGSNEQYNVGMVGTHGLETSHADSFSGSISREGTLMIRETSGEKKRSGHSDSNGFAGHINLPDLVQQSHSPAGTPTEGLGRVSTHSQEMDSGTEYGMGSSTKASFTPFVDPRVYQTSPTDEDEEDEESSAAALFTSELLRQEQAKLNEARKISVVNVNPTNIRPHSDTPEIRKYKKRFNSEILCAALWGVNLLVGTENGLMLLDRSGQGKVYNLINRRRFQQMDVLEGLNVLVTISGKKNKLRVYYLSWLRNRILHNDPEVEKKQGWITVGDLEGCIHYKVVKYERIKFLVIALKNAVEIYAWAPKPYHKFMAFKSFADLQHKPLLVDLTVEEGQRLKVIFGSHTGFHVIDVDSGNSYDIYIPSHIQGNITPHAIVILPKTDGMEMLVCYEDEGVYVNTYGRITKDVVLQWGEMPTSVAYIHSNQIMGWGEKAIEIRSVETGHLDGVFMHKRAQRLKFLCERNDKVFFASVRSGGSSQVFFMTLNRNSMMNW

[12] = SPR kinetic data, binding to immobilized TNIK
[13] = SPR kinetic data, binding to immobilized TNIK, read-out: KD
[14] = average from three multicycle kinetic experiments, 1:1 binding model, 25 °C

Molecule	fragment found [1]	half-life at 10 µM [3] [h]	IC50 [4] [nM]	half-life at 15 µM [5] [h]	koff [6, 12] [s⁻¹]	kon [6, 12] [M⁻¹ s⁻¹]	Kd [6, 13] [nM]	KD (binding affinity to TNIK) [6, 14]	cytotoxicity (cell viability) after 24 h incubation [9]	also measured
WSCNgSSgfyTA	demethylated but otherwise undigested thiopeptides									not cleaved [2]: did not degrade (6 h); completely stable; τ1/2 >100 h
C=C1NC(=O)[C@H](CC(C)C)NC(=O)[C@H](CC(N)=O)NC(=O)[C@H](CO)NC(=O)[C@H](CCCNC(=N)N)NC(=O)[C@H](CCCNC(=N)N)NC(=O)CN(C)C(=O)[C@H](C)N(C)C(=O)[C@H](CC(C)C)NC(=O)[C@H](CCCNC(=N)N)NC(=O)[C@@H]2CCCN2C(=O)[C@@H]2Cc3ccc(O)cc3CN2C(=O)[C@H]([C@@H](C)O)NC(=O)[C@H](Cc2c[nH]c3ccccc23)NC(=O)c2ccc(-c3nc(C(=O)OC)cs3)nc2-c2csc1n2 [hTP15] (WT[Tic(7-OH)]PRL[NMeA][Sar]RRSNL; linker N-C via X1)		101 ± 7	150 ± 10	1.4 ± 0.1	0.0216	4.78e+06	4.5	single-digit		ADP-Glo IC50 against TNIK [4]: sub-μM; inhibition of MINK [7]: 60%
WLRTgRaSTfTG	demethylated but otherwise undigested thiopeptides									
C=C1NC(=O)CN(C)C(=O)[C@H](CC(N)=O)NC(=O)c2csc(n2)[C@H](CO)NC(=O)[C@H](Cc2c[nH]c3ccccc23)NC(=O)[C@H](Cc2c[nH]c3ccccc23)NC(=O)c2ccc(-c3nc(C(=O)OC)cs3)nc2-c2csc(n2)C(=C)NC(=O)[C@H](C)NC(=O)/C(=C/C)NC(=O)[C@@H]2Cc3ccc(O)cc3CN2C(=O)[C@H](Cc2ccc([N+](=O)[O-])cc2)N(C)C(=O)CN(C)C(=O)C(=C)NC1=O [wTP12] (WW[X2]N[Sar][Dha][Dha][Sar][NMePhe(4-NO2)][Tic(7-OH)][Dhb]A; linker N-C via X1)			1270 ± 90	> 100	0.0597	308000	194		inactive	half-life at 10 µM [8]: 16.4 ± 2 h; half-life at 10 µM [10]: 56.3 ± 6.4 h
C=C1NC(=O)[C@H](C)N(C)C(=O)[C@H](CCCNC(=N)N)NC(=O)CN(C)C(=O)/C(=C/C)NC(=O)[C@H](CCCNC(=N)N)NC(=O)[C@H](CC(C)C)NC(=O)[C@H](Cc2c[nH]c3ccccc23)NC(=O)[C@H](Cc2c[nH]c3ccccc23)NC(=O)c2ccc(-c3nc(C(=O)OC)cs3)nc2-c2csc(n2)C(=C)NC(=O)CNC(=O)/C(=C/C)NC(=O)[C@H](Cc2ccc([N+](=O)[O-])cc2)N(C)C(=O)[C@H]([C@@H](C)O)NC1=O [hTP8] (WWLR[Dhb][Sar]R[NMeA][Dha]T[NMePhe(4-NO2)][Dhb]G; linker N-C via X1)		6.4 ± 0.1	1180 ± 160	4.9 ± 0.6	0.00256	1.21e+06		single-digit	more cytotoxic than a small molecule control, NCB0846	Kd ([6]; average from three multicycle kinetic experiments, 1:1 binding model, 25 °C, read-out: KD (binding affinity to TNIK)): 2.1 nM; concentrations at which strongly cytotoxic ([9]; dose-dependent assay): above 5 µM; IC50 ([9]; read-out: IC50, cell viability, dose-dependent 48 h incubation): 7200 nM; suppression of TNIK activity [11]: 94%
